Data published in patent US9573954B2, “Pyrazolopyrimidine compounds” (University Health Network, priority 2012, dated 2017).

Key:
[1] = tested on: ovarian cancer cells (OVCAR-3); test: Cancer cell line growth inhibition, Sulforhodamine B assay, OVCAR-3; type: cell-based; settings: Homo sapiens, OVCAR-3, OVCAR-3 ovarian cancer cell line; read-out: Cancer Cell Line GI50 Range OVCAR-3
Procedure, shortened: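 OVCAR-3 cells were seeded 24 h before compound addition, then exposed for 5 days to final concentrations of 10 nM to 50 μM in DMEM with 10% FBS. Growth was measured by TCA fixation and sulforhodamine B staining with absorbance at 570 nm. Inhibition was relative to DMSO-only cells, and GI50 came from curve fitting.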

[2] = biological target: T1, human TTK (Homo sapiens, UniProt P33981); test: TTK inhibition assay (indirect ELISA); type: biochemical; settings: 100 μM ATP; read-out: TTK IC50 Range
T1 construct: Active TTK was purchased from Invitrogen as an amino terminal GST fusion of full length human TTK; purchased Invitrogen
T1 sequence (P33981 1-857): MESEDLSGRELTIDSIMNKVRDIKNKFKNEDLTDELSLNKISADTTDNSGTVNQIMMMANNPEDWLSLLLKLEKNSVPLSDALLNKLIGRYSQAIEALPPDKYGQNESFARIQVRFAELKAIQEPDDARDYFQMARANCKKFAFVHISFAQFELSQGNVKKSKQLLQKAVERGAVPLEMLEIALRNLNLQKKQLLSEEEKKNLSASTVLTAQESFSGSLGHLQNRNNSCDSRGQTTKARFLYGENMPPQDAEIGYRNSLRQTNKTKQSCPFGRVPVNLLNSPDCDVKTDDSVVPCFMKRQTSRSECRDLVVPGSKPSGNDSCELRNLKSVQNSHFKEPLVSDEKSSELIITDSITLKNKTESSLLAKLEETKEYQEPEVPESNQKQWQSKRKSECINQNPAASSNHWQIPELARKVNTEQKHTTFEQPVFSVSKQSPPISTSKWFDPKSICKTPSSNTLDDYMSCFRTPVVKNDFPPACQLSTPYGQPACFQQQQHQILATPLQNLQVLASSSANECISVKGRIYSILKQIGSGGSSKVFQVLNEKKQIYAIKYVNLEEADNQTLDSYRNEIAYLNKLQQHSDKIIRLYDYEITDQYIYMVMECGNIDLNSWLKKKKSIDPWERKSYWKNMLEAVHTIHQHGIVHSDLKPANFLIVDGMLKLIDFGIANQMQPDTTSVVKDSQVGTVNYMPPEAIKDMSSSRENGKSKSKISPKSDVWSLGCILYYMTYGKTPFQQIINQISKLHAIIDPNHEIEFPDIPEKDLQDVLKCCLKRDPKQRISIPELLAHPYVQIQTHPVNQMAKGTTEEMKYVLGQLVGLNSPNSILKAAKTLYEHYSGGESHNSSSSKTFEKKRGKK
Procedure, shortened: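 Activity detected by indirect ELISA after compounds sat with full-length GST-TTK for 5 min prior to starting the reaction with ATP. IC50 came from a four-parameter logistic curve of % inhibition, calculated against background and uninhibited control wells.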

[3] = tested on: breast cancer cells (MDA-MB-468); test: Cancer cell line growth inhibition, Sulforhodamine B assay, MDA-MB-468; type: cell-based; settings: Homo sapiens, MDA-MB-468, MDA-MB-468 breast cancer cell line; read-out: Cancer Cell Line GI50 Range MDA-MB-468
Procedure, shortened: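 Sulforhodamine B staining (TCA-fixed, read at 570 nm) estimates cell mass after 5-day compound treatment of MDA-MB-468 cells, final concentrations 10 nM to 50 μM in 10% FBS DMEM. GI50 derived from growth inhibition versus DMSO controls.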

[4] = tested on: colon cancer cells (HCT116); test: Cancer cell line growth inhibition, Sulforhodamine B assay, HCT116; type: cell-based; settings: Homo sapiens, HCT-116, HCT116 colon cancer cell line; read-out: Cancer Cell Line GI50 Range HCT116
Procedure, shortened: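 GI50 is calculated from growth inhibition relative to DMSO controls, using TCA-fixed, SRB-stained protein mass read at 570 nm. Compound, 10 nM–50 μM final in 10% FBS DMEM, was applied for 5 days to HCT116 cells that had been plated 24 h before at 1000–4000/well.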

GI50 [1]	IC50 [2]	GI50 [3]	GI50 [4]	SMILES
100 to 500 nM	< 100 nM	100 to 500 nM	≤ 100 nM	Cc1cc(-c2cnn3c(NCC4CCOCC4)cc(N[C@H]4CCOC4)nc23)ccc1C(=O)NC1CC1 [Example C138]
100 to 500 nM	< 100 nM	100 to 500 nM	100 to 500 nM	Cc1cc(-c2cnn3c(NCC4CCOCC4)cc(NC4(CO)CC4)nc23)ccc1C(=O)NC1CC1 [Example C139]
100 to 500 nM	< 100 nM	100 to 500 nM	≤ 100 nM	Cc1cc(-c2cnn3c(NCC4CCOCC4)cc(NC4CC5(COC5)C4)nc23)ccc1C(=O)NC1CC1 [Example C141]
> 500 nM	100 to 500 nM	> 500 nM	> 500 nM	Cc1cc(-c2cnn3c(NCC4CCOCC4)cc(N4CC[C@H](O)C4)nc23)ccc1C(=O)NC1CC1 [Example C143]
> 500 nM	< 100 nM	100 to 500 nM	100 to 500 nM	Cc1cc(-c2cnn3c(NCC4(F)CCN(C)CC4)cc(Oc4cccnc4)nc23)ccc1C(=O)NC1CC1 [Example C147]
> 500 nM	< 100 nM	100 to 500 nM	100 to 500 nM	Cc1cc(-c2cnn3c(NCC4CC4)cc(NC4(CO)CCCC4)nc23)ccc1C(=O)NC1CC1 [Example C148]
100 to 500 nM	< 100 nM	100 to 500 nM	≤ 100 nM	Cc1cc(-c2cnn3c(NCC4CCOCC4)cc(-c4ccnn4C)nc23)ccc1C(=O)NC1CC1 [Example C151]
100 to 500 nM	< 100 nM	100 to 500 nM	≤ 100 nM	Cc1cc(-c2cnn3c(NCC4CC4)cc(NC4CCOCC4)nc23)ccc1C(=O)NC1CC1 [Example C153]
100 to 500 nM	< 100 nM	100 to 500 nM	100 to 500 nM	Cc1cc(-c2cnn3c(NC[C@H]4C[C@@H](O)C4)cc(NC4CCOCC4)nc23)ccc1C(=O)NC1CC1 [Example C156]
≤ 100 nM	< 100 nM	≤ 100 nM	≤ 100 nM	Cc1cc(-c2cnn3c(NCC(C)C)cc(N[C@H]4CCCC[C@H]4O)nc23)ccc1C(=O)NC1CC1 [Example C157]
100 to 500 nM	< 100 nM	100 to 500 nM	≤ 100 nM	Cc1cc(-c2cnn3c(NCC(C)C)cc(N[C@H](CO)C(C)C)nc23)ccc1C(=O)NC1CC1 [Example C158]
≤ 100 nM	< 100 nM	≤ 100 nM	≤ 100 nM	Cc1cc(-c2cnn3c(NC[C@H]4C[C@@H](O)C4)cc(Oc4cccnc4)nc23)ccc1C(=O)NC1CC1 [Example C159]
100 to 500 nM	< 100 nM	100 to 500 nM	≤ 100 nM	Cc1cc(-c2cnn3c(NCC4CCOCC4)cc(N4CCC[C@H]4CO)nc23)ccc1C(=O)NC1CC1 [Example C161]
100 to 500 nM	< 100 nM	100 to 500 nM	≤ 100 nM	Cc1cc(-c2cnn3c(NCC4CCOCC4)cc(N[C@H](CO)C4CCCCC4)nc23)ccc1C(=O)NC1CC1 [Example C163]
> 500 nM	< 100 nM	100 to 500 nM	100 to 500 nM	Cc1cc(-c2cnn3c(NCC4CCOCC4)cc(N4CCC[C@@H]4CO)nc23)ccc1C(=O)NC1CC1 [Example C164]
> 500 nM	< 100 nM	> 500 nM	100 to 500 nM	Cc1cc(-c2cnn3c(NCC4(F)CCNCC4)cc(NC4CCCC4)nc23)ccc1C(=O)NC1CC1 [Example C169]
> 500 nM	< 100 nM	100 to 500 nM	100 to 500 nM	Cc1cc(-c2cnn3c(NCC4(F)CCN(C)CC4)cc(NC4CCCC4)nc23)ccc1C(=O)NC1CC1 [Example C170]
≤ 100 nM	< 100 nM	≤ 100 nM	≤ 100 nM	Cc1cc(-c2cnn3c(NC[C@H]4C[C@H](O)C4)cc(NC4CCCC4)nc23)ccc1C(=O)NC1CC1 [Example C172]
> 500 nM	< 100 nM	> 500 nM	100 to 500 nM	Cc1cc(-c2cnn3c(NCC4(F)CCNCC4)cc(OC4CCCC4)nc23)ccc1C(=O)NC1CC1 [Example C173]
> 500 nM	< 100 nM	> 500 nM	100 to 500 nM	Cc1cc(-c2cnn3c(NCC4(F)CCN(C)CC4)cc(OC4CCCC4)nc23)ccc1C(=O)NC1CC1 [Example C174]
100 to 500 nM	< 100 nM	≤ 100 nM	≤ 100 nM	Cc1cc(-c2cnn3c(NCCN4CCN(C)CC4)cc(Oc4cccc(F)c4)nc23)ccc1C(=O)NC1CC1 [Example C178]
≤ 100 nM	< 100 nM	≤ 100 nM	≤ 100 nM	Cc1cc(-c2cnn3c(NC[C@H]4CC[C@@H](O)CC4)cc(NC4CCOCC4)nc23)ccc1C(=O)NC1CC1 [Example C179]
100 to 500 nM	< 100 nM	100 to 500 nM	≤ 100 nM	Cc1cc(-c2cnn3c(NCCN4CCCCC4)cc(Oc4cccc(F)c4)nc23)ccc1C(=O)NC1CC1 [Example C180]
100 to 500 nM	< 100 nM	100 to 500 nM	≤ 100 nM	Cc1cc(-c2cnn3c(NCCN4CCOCC4)cc(Oc4ccc(F)cc4)nc23)ccc1C(=O)NC1CC1 [Example C181]
> 500 nM	< 100 nM	100 to 500 nM	> 500 nM	Cc1cc(-c2cnn3c(NCCN4CCC(O)CC4)cc(N[C@H]4CCCC[C@H]4O)nc23)ccc1C(=O)NC1CC1 [Example C183]
100 to 500 nM	< 100 nM	100 to 500 nM	≤ 100 nM	Cc1cc(-c2cnn3c(NC[C@H]4C[C@](C)(O)C4)cc(NC4CCCC4)nc23)ccc1C(=O)NC1CC1 [Example C186]

SMILES	GI50 [1]	IC50 [2]	GI50 [3]	GI50 [4]
Cc1cc(-c2cnn3c(NCC4CC4)cc(Oc4cccnc4)nc23)ccc1C(=O)NC1CC1 [Example C152]	≤ 100 nM	< 100 nM	≤ 100 nM	≤ 100 nM
